Results published in US12121505B2, “Fap-activated therapeutic agents, and uses related thereto” (BACH BIOSCIENCES, LLC, priority 2014, dated 2024).
Like-named read-outs stand apart in the source and are kept apart here. Each block holds one compound with its values, some of them ahead of it.

Legend:
FAP [1] = biological target: T1, FAP (Homo sapiens, UniProt Q12884); experiment: Selectivity of FAP over PREP (5057DOX digest, LCMS); assay type: biochemical; settings: FIG. 14; 240 nM 5057DOX, 12, 24 or 48 nM enzyme, 37° C.
T1 sequence (Q12884 1-760): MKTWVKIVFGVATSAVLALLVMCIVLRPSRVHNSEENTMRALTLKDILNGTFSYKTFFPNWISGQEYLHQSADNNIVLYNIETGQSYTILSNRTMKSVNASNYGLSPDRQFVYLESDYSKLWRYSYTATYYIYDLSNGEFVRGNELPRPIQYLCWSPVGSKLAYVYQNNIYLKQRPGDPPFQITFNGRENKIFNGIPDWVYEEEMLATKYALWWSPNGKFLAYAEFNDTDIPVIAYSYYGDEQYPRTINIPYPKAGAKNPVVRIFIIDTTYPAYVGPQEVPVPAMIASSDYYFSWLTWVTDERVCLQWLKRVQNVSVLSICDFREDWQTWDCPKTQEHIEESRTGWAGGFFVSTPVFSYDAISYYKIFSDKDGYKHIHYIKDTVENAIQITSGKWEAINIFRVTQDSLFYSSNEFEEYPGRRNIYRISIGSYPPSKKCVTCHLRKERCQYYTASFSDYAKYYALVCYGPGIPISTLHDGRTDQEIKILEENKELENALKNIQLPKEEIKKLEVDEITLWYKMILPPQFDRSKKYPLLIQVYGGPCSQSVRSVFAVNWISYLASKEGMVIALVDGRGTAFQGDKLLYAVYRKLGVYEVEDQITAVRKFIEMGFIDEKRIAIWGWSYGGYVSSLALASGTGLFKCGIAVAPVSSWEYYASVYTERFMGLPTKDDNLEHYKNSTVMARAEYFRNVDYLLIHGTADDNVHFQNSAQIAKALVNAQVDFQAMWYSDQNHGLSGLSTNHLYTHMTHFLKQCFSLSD
Procedure: Recombinant enzyme (FAP or PREP) was combined, at reaction concentration of 12 nM, 24 nM, or 48 nM, with 240 nM 5057DOX in FAP buffer (50 mM Tris-HCl, pH 7.4, 140 mM NaCl) and incubated at 37° C. Reactions were stopped at 0, 10, 20, or 30 minutes by addition of equal volume of 10 μM Val-boroPro (FAP inhibitor). Doxorubicin was measured by liquid chromatography/mass spectroscopy (LCMS).

FAP [2] = biological target: T1, FAP; experiment: FAP digest of 5057DOX (kinetics); assay type: biochemical
[3] = 100 μM prodrug, 37° C., 12 h
PREP [4] = biological target: T2, PREP (Homo sapiens, UniProt P48147); experiment: Specificity of activation: 24 h digestion with PREP; assay type: biochemical; settings: 100 μM prodrug, 37° C.
T2 sequence (P48147 1-710): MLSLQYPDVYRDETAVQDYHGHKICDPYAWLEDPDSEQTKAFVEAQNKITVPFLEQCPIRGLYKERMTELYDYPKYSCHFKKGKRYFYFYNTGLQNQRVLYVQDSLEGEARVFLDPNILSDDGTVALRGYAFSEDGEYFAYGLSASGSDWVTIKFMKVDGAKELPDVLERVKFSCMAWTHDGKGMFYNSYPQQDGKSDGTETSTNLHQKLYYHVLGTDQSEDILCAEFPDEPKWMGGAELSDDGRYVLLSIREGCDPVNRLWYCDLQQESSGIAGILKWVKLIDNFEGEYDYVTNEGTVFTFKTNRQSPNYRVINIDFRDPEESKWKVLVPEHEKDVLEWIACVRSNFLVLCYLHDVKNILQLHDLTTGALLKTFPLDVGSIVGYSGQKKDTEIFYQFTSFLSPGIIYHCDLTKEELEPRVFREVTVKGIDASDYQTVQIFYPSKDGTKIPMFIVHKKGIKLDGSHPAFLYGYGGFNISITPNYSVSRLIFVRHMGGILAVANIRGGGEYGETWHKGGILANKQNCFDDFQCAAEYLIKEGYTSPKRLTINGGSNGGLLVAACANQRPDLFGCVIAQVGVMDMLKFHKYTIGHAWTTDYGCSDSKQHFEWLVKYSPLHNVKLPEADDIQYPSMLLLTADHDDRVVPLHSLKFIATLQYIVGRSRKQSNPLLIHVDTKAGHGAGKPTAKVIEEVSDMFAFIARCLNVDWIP
Procedure: (§1) Total doxorubicin was measured for each assay.

FAP [5] = biological target: T1, FAP; assay type: biochemical; settings: 1.34×10^−8 M FAP, 37° C.
Procedure: Michaelis-Menten enzyme kinetics for FAP were measured using a SpectraMax M2e microplate reader (Molecular Devices, Sunnyvale, CA, USA). The assays were performed in FAP buffer (50 mM […], 140 mM NaCl, pH 7.5) at 25° C., and the fluorescence continuously monitored at excitation and emission wavelengths of 380 and 460 nm, respectively. Kinetic constants (kcat and Km) were determined using GP-AMC (Bachem, Torrance, CA, USA), Ac-(D)-AP-AFC (MP Biomedicals, Solon, OH, USA) and test article concentrations equivalent to 0.1-5 times their respective Km values, and with 5-10 nM enzyme. All assays were performed in triplicate, and the results were calculated with a nonlinear regression analysis, relying on a Michaelis-Menten curve fit using GraphPad software.
(§2) 3099DOX at various concentrations ranging from 8.5×10^−6 M to 6.9×10^−4 M was incubated with 1.34×10^−8 M FAP or PREP at 37° C., and released doxorubicin measured.

PREP [6] = biological target: T2, PREP; assay type: biochemical; settings: 1.34×10^−8 M PREP, 37° C.
Procedure: as §2

[7] = assay type: physicochemical
Procedure: • (i) LCMS of compound 3099DOX. • 0-3 min: 2% B; 3-20 min: 2-98% B; 20-25 min: 98% B. • Ran with 1.8 μm particle size column on the Old LCMS. • Calc.

FAP [8] = biological target: T1, FAP; experiment: Rate of recombinant FAP activity on doxorubicin prodrugs; settings: 37° C.
FAP [9] = biological target: T1, FAP; experiment: Specificity of activation: 24 h digestion with FAP; assay type: biochemical; settings: 100 μM prodrug, 37° C.
Procedure: as §1

[10] = biological target: dipeptidyl peptidase IV (DPP IV) (Homo sapiens, UniProt P27487); experiment: Specificity of activation: 24 h digestion with DPP IV; assay type: biochemical; settings: 100 μM prodrug, 37° C.
Procedure: as §1

DPPIV = DPPIV (Homo sapiens, UniProt P27487); experiment: In vitro DPPIV inhibition assay; assay type: biochemical
DPPII = DPPII (Homo sapiens, UniProt Q9UHL4); experiment: In vitro DPPII inhibition assay; assay type: biochemical
DPP8 = DPP8 (Homo sapiens, UniProt Q6V1X1); experiment: In vitro DPP8 inhibition assay; assay type: biochemical
PREP [11] = biological target: T2, PREP; experiment: In vitro PREP inhibition assay; assay type: biochemical
DPP9 = DPP9 (Homo sapiens, UniProt Q86TI2); experiment: In vitro DPP9 inhibition assay; assay type: biochemical
FAP [12] = biological target: T1, FAP; experiment: In vitro FAP inhibition assay; assay type: biochemical

Sequence of DPPIV (P27487 whole entry, species assumed): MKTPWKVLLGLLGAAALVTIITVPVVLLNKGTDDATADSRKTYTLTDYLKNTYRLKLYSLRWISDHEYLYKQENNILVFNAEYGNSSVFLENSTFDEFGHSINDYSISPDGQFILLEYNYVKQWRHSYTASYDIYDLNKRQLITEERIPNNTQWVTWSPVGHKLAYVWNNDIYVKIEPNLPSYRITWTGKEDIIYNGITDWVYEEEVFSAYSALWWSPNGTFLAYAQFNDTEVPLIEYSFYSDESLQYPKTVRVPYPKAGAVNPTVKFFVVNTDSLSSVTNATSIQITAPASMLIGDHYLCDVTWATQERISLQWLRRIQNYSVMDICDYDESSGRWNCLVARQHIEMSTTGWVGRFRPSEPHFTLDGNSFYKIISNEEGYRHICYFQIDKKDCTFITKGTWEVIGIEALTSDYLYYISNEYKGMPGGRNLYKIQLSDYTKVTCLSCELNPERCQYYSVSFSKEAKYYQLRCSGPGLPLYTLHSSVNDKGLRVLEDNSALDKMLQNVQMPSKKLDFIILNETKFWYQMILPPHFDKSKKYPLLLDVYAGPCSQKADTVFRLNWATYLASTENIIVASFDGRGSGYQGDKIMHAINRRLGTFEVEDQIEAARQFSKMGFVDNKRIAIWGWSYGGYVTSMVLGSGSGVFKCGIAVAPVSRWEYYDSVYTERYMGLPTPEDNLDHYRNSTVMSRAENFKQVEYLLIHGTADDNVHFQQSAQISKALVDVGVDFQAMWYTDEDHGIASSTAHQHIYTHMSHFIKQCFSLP
Sequence of dipeptidyl peptidase IV (DPP IV) (P27487 whole entry, species assumed): as above
Sequence of DPP8 (Q6V1X1 whole entry, species assumed): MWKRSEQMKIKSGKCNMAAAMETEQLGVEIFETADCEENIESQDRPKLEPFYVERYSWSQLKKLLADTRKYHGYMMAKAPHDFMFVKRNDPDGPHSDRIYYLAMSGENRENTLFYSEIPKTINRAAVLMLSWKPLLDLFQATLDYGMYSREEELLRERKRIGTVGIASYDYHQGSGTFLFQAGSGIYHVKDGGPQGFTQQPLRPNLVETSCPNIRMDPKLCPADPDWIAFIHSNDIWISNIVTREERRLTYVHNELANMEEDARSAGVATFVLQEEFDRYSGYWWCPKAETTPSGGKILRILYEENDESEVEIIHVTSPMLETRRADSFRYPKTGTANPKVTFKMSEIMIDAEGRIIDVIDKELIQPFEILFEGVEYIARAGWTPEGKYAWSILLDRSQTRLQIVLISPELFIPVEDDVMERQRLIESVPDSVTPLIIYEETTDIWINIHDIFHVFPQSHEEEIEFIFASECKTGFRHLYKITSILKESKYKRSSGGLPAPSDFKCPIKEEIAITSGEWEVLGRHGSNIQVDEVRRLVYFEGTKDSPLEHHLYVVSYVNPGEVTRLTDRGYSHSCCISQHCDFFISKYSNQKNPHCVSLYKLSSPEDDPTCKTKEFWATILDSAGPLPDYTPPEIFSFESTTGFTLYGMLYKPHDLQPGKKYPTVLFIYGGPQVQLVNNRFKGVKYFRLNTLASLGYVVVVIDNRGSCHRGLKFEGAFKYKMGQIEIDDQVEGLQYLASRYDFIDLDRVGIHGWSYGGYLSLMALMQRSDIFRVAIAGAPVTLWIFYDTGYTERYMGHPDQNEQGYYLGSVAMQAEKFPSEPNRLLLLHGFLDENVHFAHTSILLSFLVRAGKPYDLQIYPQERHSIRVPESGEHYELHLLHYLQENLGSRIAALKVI
Sequence of DPP9 (Q86TI2 whole entry, species assumed): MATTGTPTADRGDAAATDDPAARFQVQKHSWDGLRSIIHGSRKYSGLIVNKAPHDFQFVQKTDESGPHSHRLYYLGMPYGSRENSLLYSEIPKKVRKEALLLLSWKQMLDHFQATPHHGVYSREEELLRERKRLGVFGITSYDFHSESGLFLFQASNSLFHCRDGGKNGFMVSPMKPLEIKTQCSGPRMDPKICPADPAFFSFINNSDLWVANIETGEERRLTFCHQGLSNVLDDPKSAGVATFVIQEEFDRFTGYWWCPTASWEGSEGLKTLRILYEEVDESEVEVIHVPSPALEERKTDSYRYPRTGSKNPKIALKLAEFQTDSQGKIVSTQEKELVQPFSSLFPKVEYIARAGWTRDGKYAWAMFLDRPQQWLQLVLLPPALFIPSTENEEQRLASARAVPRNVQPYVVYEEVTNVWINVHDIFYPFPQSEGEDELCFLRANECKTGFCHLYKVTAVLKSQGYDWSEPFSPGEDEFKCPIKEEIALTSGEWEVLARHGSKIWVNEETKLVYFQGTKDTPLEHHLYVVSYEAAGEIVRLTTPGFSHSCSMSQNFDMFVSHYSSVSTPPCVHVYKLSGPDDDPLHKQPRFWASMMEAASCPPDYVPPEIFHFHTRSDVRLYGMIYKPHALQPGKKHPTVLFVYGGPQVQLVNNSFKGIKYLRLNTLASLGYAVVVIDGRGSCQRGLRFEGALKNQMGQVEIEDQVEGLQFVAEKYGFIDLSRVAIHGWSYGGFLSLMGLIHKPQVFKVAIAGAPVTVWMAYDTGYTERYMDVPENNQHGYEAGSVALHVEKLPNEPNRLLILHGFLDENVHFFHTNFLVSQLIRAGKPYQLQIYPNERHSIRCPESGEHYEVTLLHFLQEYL

- Km (FAP [2]; assay 6, [FAP] 4.00 × 10^−9M): 11.1 µM
- Vmax (FAP [2]; assay 6, [FAP] 4.00 × 10^−9M): 5.19e-09 M/s
- kcat(Vmax/[E]) (FAP [2]; assay 6, [FAP] 4.00 × 10^−9M): Kcat(Vmax/[E]) 1.30 sec^−1
- Kcat (FAP [2]; assay 7, [FAP] 1 nM): Kcat 0.98 sec^−1
- Km (FAP [2]; assay 7, [FAP] 1 nM): 4.85 µM
- Vmax (FAP [2]; assay 7, [FAP] 1 nM, Dox standards, Daunorubicin internal standard): Vmax 9.80 × 10^−9M/sec
Compound: COc1cccc2c1C(=O)c1c(O)c3c(c(O)c1C2=O)C[C@@](O)(C(=O)CO)C[C@@H]3O[C@H]1C[C@H](NC(=O)[C@@H]2CC(F)(F)CN2C(=O)CNC(=O)c2ccnc3ccccc23)[C@H](O)[C@H](C)O1 [Compound 5057DOX]
- activation by FAP as compared to PREP (FAP [1]): selectively activated by FAP as compared to PREP

Compound: COc1cccc2c1C(=O)c1c(O)c3c(c(O)c1C2=O)C[C@@](O)(C(=O)CO)C[C@@H]3O[C@H]1C[C@H](NC(=O)[C@@H]2CCCN2C(=O)[C@@H](C)NC(=O)c2ccncc2)[C@H](O)[C@H](C)O1 [Compound 3099DOX]
- doxorubicin released in mouse muscle lysate [3]: released essentially no doxorubicin
- doxorubicin released by PREP (PREP [4]): neither PREP nor DPP IV
- Km (FAP [5]): 11.2 µM
- kcat(Vmax/[E]) (FAP [5]): 0.44 s⁻¹
- Vmax (FAP [5]; released doxorubicin): 5.877e-09 M/s
- activation with PREP (PREP [6]): essentially no activation with PREP
- Remaining Purity % ([7]; 22° C./72% RH, 1 month): 99.5%
- Remaining Purity % ([7]; 22° C./72% RH, 1 week): 99.3%
- Remaining Purity % ([7]; 22° C./72% RH, 2 month): 98.1%
- Remaining Purity % ([7]; 22° C./72% RH, 3 month): 97.5%
- Remaining Purity % ([7]; 22° C./72% RH, Day 0): 99.4%
- Remaining Purity % ([7]; 40° C./75% RH, 1 month): 98.8%
- Remaining Purity % ([7]; 40° C./75% RH, 1 week): 99.3%
- Remaining Purity % ([7]; 40° C./75% RH, 2 month): 96.3%
- Remaining Purity % ([7]; 40° C./75% RH, 3 month): 95.3%
- Remaining Purity % ([7]; 40° C./75% RH, Day 0): 99.4%
- time to reach maximum free doxorubicin (FAP [8]): approximately 8 h
- doxorubicin released by FAP (FAP [9]): released from 3099DOX by FAP

Compound: COc1cccc2c1C(=O)c1c(O)c3c(c(O)c1C2=O)C[C@@](O)(C(=O)CO)C[C@@H]3O[C@H]1C[C@H](NC(=O)[C@@H]2CCCN2C(=O)CNC(=O)OCc2ccccc2)[C@H](O)[C@H](C)O1 [z-GP-DOX, reference compound]
- doxorubicin released by DPP IV [10]: essentially none by DPP IV
- doxorubicin released in mouse muscle lysate [3]: released a large amount of doxorubicin
- doxorubicin released by PREP (PREP [4]): A similar amount of doxorubicin was released from z-GP-DOX by FAP and PREP
- doxorubicin released by FAP (FAP [9]): A similar amount of doxorubicin was released from z-GP-DOX by FAP and PREP

- IC50 (DPPIV): 860 nM
- IC50 (DPPII): 24000 nM
- IC50 (DPP8): 7300 nM
- IC50 (PREP [11]): 15 nM
- IC50 (DPP9): 2600 nM
- IC50 (FAP [12]): 110 nM
Compound: CC(C)[C@H](NC(=O)OCc1ccc(NC(=O)[C@@H]2CC(F)(F)CN2C(=O)CNC(=O)c2ccnc3ccccc23)cc1)C(=O)N1CCC[C@H]1B(O)O [Compound 5181]
